Where “and” joins values, the source holds several entries; their conditions need not be identical. Equal entries are not always repeated. Inconclusive results and toxic doses are left out. No stated cut-off is given here; in the data, active means T/C of 150% or more; inactive means T/C below 125%.
Tested on: L1210 leukemia ip in BDF1 mice, survival T/C
Assay: NCI In Vivo Anticancer Drug Screen. Data for tumor model L1210 Leukemia (intraperitoneal) in B6D2F1 (BDF1) mice
Details: endpoint: mean survival time, higher = longer survival
Outline: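 Mice bearing the transplanted tumor received compound or vehicle. Survival of the treated group was divided by that of the vehicle-treated control group to give the ratio.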

[1] = dose: 75.0 mg/kg/injection, schedule: Q01DX001 (ip), vehicle: saline
[2] = dose: 100.0 mg/kg/injection, schedule: Q01DX009 (ip), vehicle: Klucel (hydroxypropylcellulose) (HPC)
[3] = dose: 100.0 mg/kg/injection, schedule: Q04DX003 (ip), vehicle: Klucel (hydroxypropylcellulose) (HPC)
[4] = dose: 200.0 mg/kg/injection, schedule: Q01DX009 (ip), vehicle: Klucel (hydroxypropylcellulose) (HPC)
[5] = dose: 200.0 mg/kg/injection, schedule: Q04DX003 (ip), vehicle: Klucel (hydroxypropylcellulose) (HPC)
[6] = dose: 400.0 mg/kg/injection, schedule: Q01DX009 (ip), vehicle: Klucel (hydroxypropylcellulose) (HPC)
[7] = dose: 400.0 mg/kg/injection, schedule: Q04DX003 (ip), vehicle: Klucel (hydroxypropylcellulose) (HPC)
[8] = dose: 100.0 mg/kg/injection, schedule: Q04DX002 (ip), vehicle: Klucel (hydroxypropylcellulose) (HPC)
[9] = dose: 200.0 mg/kg/injection, schedule: Q04DX002 (ip), vehicle: Klucel (hydroxypropylcellulose) (HPC)
[10] = dose: 400.0 mg/kg/injection, schedule: Q04DX002 (ip), vehicle: Klucel (hydroxypropylcellulose) (HPC)
[11] = dose: 100.0 mg/kg/injection, schedule: Q01DX001 (ip), vehicle: Klucel (hydroxypropylcellulose) (HPC)
[12] = dose: 200.0 mg/kg/injection, schedule: Q01DX001 (ip), vehicle: Klucel (hydroxypropylcellulose) (HPC)
[13] = dose: 400.0 mg/kg/injection, schedule: Q01DX001 (ip), vehicle: Klucel (hydroxypropylcellulose) (HPC)
[14] = dose: 50.0 mg/kg/injection, schedule: Q01DX001 (ip), vehicle: saline
[15] = dose: 100.0 mg/kg/injection, schedule: Q04DX003 (ip), vehicle: saline with Tween-80
[16] = dose: 200.0 mg/kg/injection, schedule: Q04DX003 (ip), vehicle: saline with Tween-80
[17] = dose: 400.0 mg/kg/injection, schedule: Q04DX003 (ip), vehicle: saline with Tween-80
[18] = dose: 200.0 mg/kg/injection, schedule: Q01DX009 (ip), vehicle: saline
[19] = dose: 400.0 mg/kg/injection, schedule: Q01DX009 (ip), vehicle: saline
[20] = dose: 100.0 mg/kg/injection, schedule: Q01DX001 (ip), vehicle: saline
[21] = dose: 200.0 mg/kg/injection, schedule: Q01DX001 (ip), vehicle: saline
[22] = dose: 400.0 mg/kg/injection, schedule: Q01DX001 (ip), vehicle: saline

Measured: T/C

CN(C)CCCNCC(=O)Nc1ccc(S(=O)(=O)c2ccc([N+](=O)[O-])cc2)cc1
inactive: [1] 104 % of control | dose: 150.0 mg/kg/injection, schedule: Q01DX001 (ip), vehicle: saline 104 % of control

COC(=O)CNC(=O)OCc1ccccc1
inactive: [2] 108 % of control | [3] 101 % of control | [4] 97 % of control | [5] 101 % of control | [6] 96 % of control | [7] 98 % of control

O=C(O)c1cccc(F)c1CBr
inactive: dose: 75.0 mg/kg/injection, schedule: Q01DX001 (ip), vehicle: carboxymethylcellulose (CMC) 104 % of control

CCCCCCC(=O)N(CC)CC
inactive: dose: 100.0 mg/kg/injection, schedule: Q04DX002 (ip), vehicle: saline 94 % of control | dose: 200.0 mg/kg/injection, schedule: Q04DX002 (ip), vehicle: saline 98 % of control | dose: 400.0 mg/kg/injection, schedule: Q04DX002 (ip), vehicle: saline 91 % of control

O=C1Nc2ccccc2C2=C3CCCCC3=NNC12 (stereo not drawn)
inactive: [8] 101 % of control | [9] 97 % of control | [10] 108 % of control

CCCCCCCCCCCCCCCCOc1ccc(C(C)(C)C)cc1
inactive: [11] 93 % of control | [12] 93 % of control | [13] 93 % of control

C1CCC(C2CCC(N3CCCCC3)CC2)CC1 (stereo not drawn)
inactive: dose: 12.5 mg/kg/injection, schedule: Q01DX001 (ip), vehicle: saline 106 % of control | dose: 25.0 mg/kg/injection, schedule: Q01DX001 (ip), vehicle: saline 101 % of control | [14] 101 % of control

CCCCN(CCCC)c1ccc(/C=C/c2ccnc3ccccc23)cc1
inactive: dose: 100.0 mg/kg/injection, schedule: Q01DX009 (ip), vehicle: carboxymethylcellulose (CMC) 101 % of control and 103 % of control | dose: 100.0 mg/kg/injection, schedule: Q04DX002 (ip), vehicle: carboxymethylcellulose (CMC) 102 % of control | dose: 100.0 mg/kg/injection, schedule: Q04DX003 (ip), vehicle: carboxymethylcellulose (CMC) 97 % of control | dose: 200.0 mg/kg/injection, schedule: Q01DX001 (ip), vehicle: carboxymethylcellulose (CMC) 92 % of control | dose: 200.0 mg/kg/injection, schedule: Q01DX009 (ip), vehicle: carboxymethylcellulose (CMC) 101 % of control and 104 % of control | dose: 200.0 mg/kg/injection, schedule: Q04DX002 (ip), vehicle: carboxymethylcellulose (CMC) 108 % of control | dose: 200.0 mg/kg/injection, schedule: Q04DX003 (ip), vehicle: carboxymethylcellulose (CMC) 100 % of control | dose: 400.0 mg/kg/injection, schedule: Q01DX009 (ip), vehicle: carboxymethylcellulose (CMC) 101 % of control and 103 % of control | dose: 400.0 mg/kg/injection, schedule: Q04DX002 (ip), vehicle: carboxymethylcellulose (CMC) 102 % of control | dose: 400.0 mg/kg/injection, schedule: Q04DX003 (ip), vehicle: carboxymethylcellulose (CMC) 97 % of control | dose: 800.0 mg/kg/injection, schedule: Q01DX001 (ip), vehicle: carboxymethylcellulose (CMC) 92 % of control | dose: 1600.0 mg/kg/injection, schedule: Q01DX001 (ip), vehicle: carboxymethylcellulose (CMC) 88 % of control

Cn1nc(N)c2cc(C#N)c(N)nc21
inactive: [2] 90 % of control | [4] 90 % of control | [6] 95 % of control

C=C(C)COc1cc(C=NCCCC)c(C)cc1C
inactive: [15] 96 % of control | [16] 102 % of control | [17] 96 % of control

C[N+](C)(C)CCC(=O)c1ccccc1
inactive: dose: 12.5 mg/kg/injection, schedule: Q04DX003 (ip), vehicle: saline 97 % of control | dose: 25.0 mg/kg/injection, schedule: Q04DX003 (ip), vehicle: saline 100 % of control | dose: 50.0 mg/kg/injection, schedule: Q04DX003 (ip), vehicle: saline 94 % of control | [1] 102 % of control

Clc1ccc(CSc2ncc(Br)c(N3CC3)n2)cc1
inactive: dose: 100.0 mg/kg/injection, schedule: Q01DX Z (ip), vehicle: methylcellulose (MC) 93 % of control | dose: 200.0 mg/kg/injection, schedule: Q01DX Z (ip), vehicle: methylcellulose (MC) 88 % of control

O=C1OC(c2ccc([N+](=O)[O-])cc2)=N/C1=C\c1cccc([N+](=O)[O-])c1
inactive: dose: 100.0 mg/kg/injection, schedule: Q01DX009 (ip), vehicle: other 96 % of control | dose: 200.0 mg/kg/injection, schedule: Q01DX009 (ip), vehicle: other 100 % of control | dose: 400.0 mg/kg/injection, schedule: Q01DX009 (ip), vehicle: other 106 % of control

CC1OCC2OC(C)OC(C(COC(c3ccccc3)(c3ccccc3)c3ccccc3)OS(C)(=O)=O)C2O1 (stereo not drawn)
inactive: dose: 100.0 mg/kg/injection, schedule: Q01DX009 (ip), vehicle: saline 101 % of control | dose: 100.0 mg/kg/injection, schedule: Q04DX003 (ip), vehicle: saline 102 % of control | [18] 106 % of control | dose: 200.0 mg/kg/injection, schedule: Q04DX003 (ip), vehicle: saline 98 % of control | [19] 88 % of control | dose: 400.0 mg/kg/injection, schedule: Q04DX003 (ip), vehicle: saline 93 % of control

CSc1ccc(Sc2cccc3c2C(=O)c2c(cccc2Sc2ccc(SC)cc2)C3)cc1
inactive: dose: 100.0 mg/kg/injection, schedule: Q01DX009 (ip), vehicle: saline with Tween-80 90 % of control | dose: 200.0 mg/kg/injection, schedule: Q01DX009 (ip), vehicle: saline with Tween-80 92 % of control | dose: 400.0 mg/kg/injection, schedule: Q01DX009 (ip), vehicle: saline with Tween-80 103 % of control

CCOC(=O)c1cnc(SC)nc1NC
inactive: [3] 97 % of control | [5] 99 % of control | [7] 111 % of control

CC1C(C(C)(C)C)N1C (stereo not drawn)
inactive: [3] 108 % of control | [5] 110 % of control

CC(C)NS(=O)(=O)c1ccc(Cl)cc1
inactive: [3] 100 % of control | [5] 102 % of control

COc1c2ccc(-c3ccccc3)oc-2cc(=O)c1C
inactive: [8] 104 % of control | [9] 96 % of control | [10] 93 % of control

CCSC(C(O)C(O)C(O)C(O)CO)n1ccc(=O)[nH]c1=O (stereo not drawn)
inactive: [11] 100 % of control | [3] 88 % of control | [15] 103 % of control | [12] 100 % of control | [18] 93 % of control | [5] 93 % of control | [16] 94 % of control | [13] 102 % of control | [19] 94 % of control | [7] 87 % of control | [17] 92 % of control

CC(C)C1CC2CCC3C(C)(C(=O)O)CCCC3(C)C2CC1CO (stereo not drawn)
inactive: [15] 92 % of control | [16] 92 % of control | [17] 93 % of control

CC(N)C(=O)NC1C(CO)OC(n2cnc3c(N)ncnc32)C1O (stereo not drawn)
inactive: [20] 105 % of control | [21] 101 % of control | [22] 101 % of control

O=C1C2C(C(=O)N1c1ccccc1)C(c1ccccc1)N(c1ccccc1)C2c1ccccc1 (stereo not drawn)
inactive: [14] 103 % of control | [20] 108 % of control | [21] 100 % of control | [22] 103 % of control

CCCCCCC(C(C(C)=O)C(C)=O)C(C(C)=O)C(C)=O
inactive: [15] 91 % of control | [16] 93 % of control

Cc1ccc(N2CCN(CC(O)c3ccccc3)CC2)cc1 (stereo not drawn)
inactive: dose: 50.0 mg/kg/injection, schedule: Q01DX009 (ip), vehicle: Klucel (hydroxypropylcellulose) (HPC) 95 % of control | [2] 95 % of control | [4] 98 % of control

Cc1ccc(NC(=O)C2C3C=CC(C3)C2C(=O)Nc2ccc(C)cc2)cc1 (stereo not drawn)
inactive: [15] 96 % of control | [16] 96 % of control | [17] 91 % of control

CCC(CO)Nc1nc2ccc(Cl)cc2c2ccccc12 (stereo not drawn)
inactive: [2] 104 % of control | [3] 102 % of control | [4] 90 % of control | [5] 111 % of control | [6] 103 % of control | [7] 107 % of control

Cc1ccc(S(=O)(=O)NC(CSSCC(NS(=O)(=O)c2ccc(C)cc2)C(=O)OC(C)(C)C)C(=O)OC(C)(C)C)cc1 (stereo not drawn)
inactive: [2] 101 % of control | [3] 98 % of control | [4] 106 % of control | [5] 101 % of control | [6] 95 % of control | [7] 98 % of control

Source: PubChem BioAssay AID248 (DTP/NCI, 2004)
